# Like-named read-outs stand apart in the source and are kept apart here. *1 amine or outer side, *2 acyl side, *3 side chain or, on linkers, in order; H or OH if unused. Where a SMILES comes first, the peptide text is derived from it. [ ]: non-standard residue; d: D form. The star is where a group is joined. X1 = O=C(c1cc([N+](=O)[O-])n[nH]1)*; X2 = O=C(c1cc(N[*:1])n[nH]1)[*:2]; AEEEA = NCCOCCOCCOCC(=O)O
# Assays:
# [1] = biological target: T1, preformed Aβ(1-42) fibrils (Homo sapiens, UniProt P05067); assay: ThT equilibrium disaggregation assay of preformed fibrils; format: biochemical; conditions: 33 μM Aβ42 preformed fibrils, 198 μM ligand, 10 mM PBS pH 7.3
# T1 construct: Aβ(1-42)-peptide (Bachem, Bubendorf, Germany) was prepared in HFIP; purchased Bachem, Bubendorf
# T1 sequence (P05067 672-713 limits assumed): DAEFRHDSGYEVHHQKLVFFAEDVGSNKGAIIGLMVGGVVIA
# Text: Starting from preformed fibrils, the disassembly process was also monitored with the full series of modified trimeric aminopyrazoles. […] In other words, little difference is observed between the end points of aggregation assays, in which the ligand inhibits de novo aggregation starting from monomeric Aβ molecules, and those experiments, which require disaggregation of preformed fibrils by externally added ligand. Experimental evidence is thus provided for the fact, that aminopyrazole ligands operate in a fully reversible fashion, and reach an open equilibrium when the thermodynamically most favorable complex is formed.
# (§1) Thioflavin T (ThT) measurements were carried out in a 384-well plate (Nunc GmbH, Wiesbaden, Germany) in an InfiniTe 200 plate reader (Tecan GmbH, Crailsheim, Germany). Fluorescence intensity was measured at 37° C., 446 nm excitation wavelength (bandwidth 9 nm) and 490 nm emission wavelength with a bandwidth of 20 nm. Each data point was averaged over 40 lamp flashes. Each measurement cycle was started by shaking the sample carrier orbitally for 30 s at medium intensity to avoid settling of larger aggregates. The 384-well plate was covered with a transparent and DMSO-stable film (Nunc GmbH, Wiesbaden, Germany). Each single sample was composed of 33 μM Aβ(1-40) or rather Aβ(1-42) in 10 mM PBS (phosphate buffered saline), 10.7% DMSO, 10 μM ThT and 198 μM of the test compound. For graph representation emission values of fourfold samples were averaged. Each test compound was measured separately, both in 10 mM PBS and 10 mM PBS with ThT to exclude any potential interactions between ligand and ThT.
# After that, 9.5 μL ThT (62.7 μM stock solution) was pipetted and the assay solution was briefly centrifugated. The ThT fluorescence was measured at λEx=446 nm and λEm=490 nm. For graph representation emission values of fourfold samples were averaged.
# [2] = tested on: differentiated rat pheochromocytoma (PC-12) cells; assay: cells
# Procedure: Next, to examine whether the aminopyrazole trimers could protect cell from Aβ42-induced neurotoxicity, cells were treated for […] with 10 μM Aβ(1-42), a concentration that produces 30 to 40% decrease in cell viability, in the absence or presence of 100 μM of each compound. The viability of the cells then was assessed using the MTT assay.
# MTT viability assays. Cell viability assays were performed as described in Fradinger et al. (Fradinger et al., PNAS, 2008). Rat pheochromocytoma (PC-12) cells were maintained in F-12 nutrient mixture with Kaighn's modification (F-12K) (Gibco BRL, Carlsbad, Calif.) with 15% heat-inactivated horse serum and 2.5% FBS at 37° C. in an atmosphere of 5% CO2. For cell viability assays, cells were plated in 96-well plates at a density of 25,000 cells per well in differentiation media (F-12K, 0.5% FBS, […] nerve growth factor) and maintained for 48 h. Aβ42 was solubilized in a minimal amount of DMSO (Sigma) and then diluted in the F-12K media in the absence or presence of the compounds and then added to cells and incubated for 48 h at 37° C. The final Aβ42 concentration was always kept constant at 10 μM. The stock solutions of the compounds were prepared at 10 mM in DMSO and diluted in the F-12K media at the required concentration. Negative controls included DMSO at the same concentration as in the peptide solutions and media alone. A positive control was […] staurosporine as lethal dose which represented 100% reduction in cell viability, based on which the percentage viability of all of the experimental conditions was calculated. Cell viability was assessed quantitatively by the CellTiter 96 Non-Radioactive Cell Proliferation Assay (Promega). Briefly, 15 μl of 3-(4,5-dimethylthiazol-2-yl)-2,5-diphenyltetra-zolium bromide (MTT) dye solution was incubated with the cells for 3 h. Then 100 μl of solubilization/stop solution was added and the plates were incubated overnight in the dark to ensure complete solubilization. Plates were read by using a Synergy HT microplate reader (BioTek), and the absorbance at 570 nm (formazan product) minus the absorbance at 630 nm (background) was recorded. Corrected absorbance was used to calculate the percent cell viability from the experimental change (Amedia-Aexperimental) over the dynamic range (Amedia-Astaurosporine). At least three independent experiments with six replicates (n≧18) were carried out, and the results were averaged.
# To determine the IC50 value of each of the compounds, dose-dependence MTT experiments with the compounds were conducted. Aβ42 was used at 10 μM and the compounds were used at 100, 30, 10, 3, 1 and 0.3 μM. Three independent experiments with six replicates (n≧18) were carried out, and results were averaged. The data for each compound was fitted to the following equation to get the IC50 values. y=Bottom+((Top−Bottom)/(1+10^(x-log(IC^50^))))
# Top: the y value at which the top of the sigmoidal curve becomes parallel to the X-axis; Bottom: the y value at which the bottom of the sigmoidal curve becomes parallel to the X-axis.
# Also, MTT viability assays were run with differentiated PC-12 cells.
# Aβ(1-42) = biological target: T2, Aβ(1-42) (Homo sapiens, UniProt P05067); assay: ThT equilibrium inhibition assay of Aβ aggregation; format: biochemical; conditions: for ThT fluorescence level, inhibition of aggregation: 33 μM Aβ42, 198 μM ligand, 10 mM PBS pH 7.3, 72 h
# T2 construct: Aβ(1-42)-peptide (Bachem, Bubendorf, Germany) was prepared in HFIP; purchased Bachem, Bubendorf
# T2 sequence (P05067 672-713 limits assumed): as above
# Procedure: After 72 h, the aggregation process has reached a maximum in the absence or presence of any trimeric ligand, even for the slow Aβ (1-40) peptide. The respective equilibrium concentration is then indicated by the relative fluorescence intensity reached at the end point. The full series of new aminopyrazole trimer derivatives was subjected to ThT inhibition experiments and the final equilibrium was analyzed by comparison of the respective fluorescence intensities of intercalated dye at 482 nm (exc. at 442 nm). […] Their proposed mechanism of action is discussed within the next chapters together with all the other biophysical, biochemical as well as modeling data.
# as §1
# The ThT assay solution was briefly centrifugated and it was pipetted in a 384-well plate. The ThT fluorescence was measured at λEx=446 nm and λEm=490 nm. Each point is the average of quadruplication.
Structure (SMILES),"ThT fluorescence level, disaggregation [1] [%]","viability increase (rescue from Aβ toxicity) ([2]; PC-12 cells, 10 μM Aβ(1-42), 100 μM compound) [%]","IC50 ([2]; read-out: IC50 of inhibition of Aβ-induced toxicity, PC-12 cells, MTT, Aβ42 10 μM, ligand 0.3-100 μM) [µM]","ThT fluorescence level, inhibition of aggregation (Aβ(1-42)) [%]","ThT values compared with the original trimer (Aβ(1-42); Aβ(1-42), in words)",solubility [mM],IC50 [2] [µM]
"COC(=O)C(CCCCN)NC(=O)COCCOCCOCCNC(=O)c1cc(NC(=O)c2cc(NC(=O)c3cc([N+](=O)[O-])n[nH]3)n[nH]2)n[nH]1.O=C(O)C(F)(F)F (stereo not shown) [Trimer-TEG-Lys-OMe, Trifluoro-acetate5-methoxycarbonyl-5-(2-{2-[2-(2-{[5-({5-[(5-nitro-2H-pyrazole-3-carbonyl)-amino]-2H-pyrazole-3-carbonyl}-amino)-2H-pyrazole-3-carbonyl]-amino}-ethoxy)-ethoxy]ethoxy}-acetylamino)-pentyl-ammonium]",20,> 40,52.7,20,surpass the original trimer activity,–,–
"NCCCC[C@H](NC(=O)c1cc(NC(=O)c2cc(NC(=O)c3cc([N+](=O)[O-])n[nH]3)n[nH]2)n[nH]1)C(=O)N[C@@H](CCCCN)C(=O)N[C@@H](CCCCN)C(=O)N[C@@H](CCCCN)C(=O)N[C@@H](CCCCN)C(=O)NCC(=O)O [Trimer-KKKKKG-OH, 3-(3-(3-nitro-1H-pyrazole-5-carboxamido)-1H-pyrazole-5-carboxamido)-1H-pyrazole-5-carboxamido-(S)-lysinyl-(S)-lysinyl-(S)-lysinyl-(S)-lysinyl-(S)-lysinyl-(S)-glycine] (X1-[X2][X2]KKKKKG-OH)",20,–,–,20,–,> 4.95,–
"CC(C)C[C@H](NC(=O)[C@H](CCCCN)NC(=O)COCCOCCOCCNC(=O)c1cc(NC(=O)c2cc(NC(=O)c3cc([N+](=O)[O-])n[nH]3)n[nH]2)n[nH]1)C(=O)N[C@H](C(=O)N[C@@H](Cc1ccccc1)C(=O)N[C@@H](Cc1ccccc1)C(=O)O)C(C)C [Trimer-TEG-KLVFF-OH, 1-(3-(3-(3-Nitro-1H-pyrazole-5-carboxamido)-1H-pyrazole-5-carbox-amido)-1H-pyrazol-5-yl)-1-oxo-5,8,11-trioxa-2-azatridecan-13-carboxamido-(S)-lysinyl-(S)-leucinyl-(S)-valinyl-(S)-phenylalaninyl-(S)-phenylalanine] (X1-[X2][X2][AEEEA]KLVFF-OH)",–,–,–,–,–,0.2 to 4.95,> 100

# Reference: patent US8481494B2, “Compounds for the treatment of diseases related to protein misfolding” (priority 2009, dated 2013)
